In patent US20240183842A1, “Supercharged Biovesicles and Methods of Use Thereof” (The General Hospital Corporation, priority 2021, published 2024):

Tests used:
HEK293T cells = experiment: Inhibitor pretreatment before Bodipy TR-scEV uptake, flow cytometry; type: cell-based, human; details: for +scProtein fluorescence levels compared to sham / Bodipy TR fluorescence in recipient cells (scEV uptake) compared to sham: 1 h pretreatment, 24 h Bodipy TR-scEVs, CHL 10 μM, Bort 5 μM; for Bodipy TR fluorescence in recipient cells (scEV uptake) compared to sham: ConA 200 nM, Baf 200 nM
Protocol: For inhibitor treatment before scEV uptake, HEK293T cells (50,000 cells per well) were seeded in 24-well culture plates (Falcon) for 24 h in DMEM with serum. The cells were then pre-incubated with the inhibitors in Optimem without serum. […] The labelled EVs (10^7-10^8 particles) were added each well for 24 h in the presence of the indicated inhibitors. Following incubation, cells were trypsinized and analyzed based on scProtein and Bodipy TR fluorescence on a Beckman SORP 5 Laser BD Fortessa Flow Cytometer in the MGH core facility.
FLOW CYTOMETRY. Flow cytometric analysis was performed on the Beckman SORP 5 Laser BD Fortessa Flow Cytometer in the MGH core facility. Forward and side scatter signals were used to distinguish live cells from polystyrene beads. Proper gating was performed to identify positive fluorescent signals compared to non-stained or single stained controls.

[1] = biological target: Flag-Tag affinity beads (antibody based magnetic beads); experiment: elution of bead-bound NoMi-EVs with free Flag peptide, nanoluciferase bioluminescence read-out

For `CC(C)C[C@H](NC(=O)[C@H](Cc1ccccc1)NC(=O)c1cnccn1)B(O)O` [Bortezomib], the “+scProtein fluorescence levels compared to sham” value (HEK293T cells) was “increase”, the “Bodipy TR fluorescence in recipient cells (scEV uptake) compared to sham” value (“Bodipy TR fluorescence … compared to sham” below) (HEK293T cells) was “increased scEV uptake” and the “+scProtein fluorescence in combination with Baf and ConA” value (HEK293T cells; Bort combined with Baf or ConA) was “increased”.

In the case of `CCN(CC)CCCC(C)Nc1ccnc2cc(Cl)ccc12` (centres unmarked) [Chloroquine], the “+scProtein fluorescence levels compared to sham” value (HEK293T cells) is reported as “increase” and the “Bodipy TR fluorescence … compared to sham” value (HEK293T cells) is reported as “significantly increase”.

For `C/C=C/[C@H]1O[C@@](O)([C@@H](C)[C@H](O)[C@H](C)[C@H]2OC(=O)/C(OC)=C/C(C)=C/[C@@H](C)[C@@H](O)[C@@H](CC)[C@@H](O)[C@H](C)C/C(C)=C/C=C/[C@@H]2OC)C[C@@H](O[C@H]2C[C@@H](O)[C@H](OC(N)=O)[C@@H](C)O2)[C@@H]1C` [concanamycin A], the “Bodipy TR fluorescence … compared to sham” value (HEK293T cells) was “No significant decrease”.

In the case of `CO/C1=C\C(C)=C\[C@@H](C)[C@@H](O)[C@@H](C)C/C(C)=C/C=C/[C@H](OC)[C@@H]([C@@H](C)[C@@H](O)[C@H](C)[C@@]2(O)C[C@@H](O)[C@H](C)[C@@H](C(C)C)O2)OC1=O` [Bafilomycin A1], the “Bodipy TR fluorescence … compared to sham” value (HEK293T cells) is reported as “No significant decrease”.

In the case of DYDKDDDK [Flag-Tag peptide], the percent of EVs recovered from the beads by peptide elution [1] is reported as 75%.
